Laboratory results reported in ChEMBL document CHEMBL4825775, “Substituted 2,3-Benzodiazepines Derivatives as Bromodomain BRD4 Inhibitors” (ACS Med Chem Lett, 2021).

Tests used:
[1] = target: T1, Bromodomain-containing protein 4 (Homo sapiens, UniProt O60885); test: Inhibition of recombinant human His-tagged BRD4 BD2 using biotin-labelled histone H4 acetylated peptide as substrate by TR-FRET assay
[2] = target: T1, Bromodomain-containing protein 4; test: Inhibition of recombinant human His-tagged BRD4 BD1 using biotin-labelled histone H4 acetylated peptide as substrate by TR-FRET assay

CNC(=O)N1N=C(c2ccc(N3CCN(C(=O)COCCOCCOCCOCC(=O)Nc4cccc5c4C(=O)N(C4CCC(=O)NC4=O)C5=O)CC3)cc2)c2cc(OC)c(OC)cc2C[C@@H]1C (stereo partly drawn)
IC50 [1]: 78.4 nM
IC50 [2]: 18.6 nM

CNC(=O)N1N=C(c2ccc(N3CCN(C(=O)CCOCCOCCOCCNc4ccc5c(c4)C(=O)N(C4CCC(=O)NC4=O)C5=O)CC3)cc2)c2cc(OC)c(OC)cc2C[C@@H]1C (stereo partly drawn)
IC50 [1]: 166 nM
IC50 [2]: 19.3 nM

CNC(=O)N1N=C(c2ccc(N3CCN(C(=O)COCCOCCOCC(=O)Nc4cccc5c4C(=O)N(C4CCC(=O)NC4=O)C5=O)CC3)cc2)c2cc(OC)c(OC)cc2C[C@@H]1C (stereo partly drawn)
IC50 [1]: 150 nM
IC50 [2]: 14.9 nM

CNC(=O)N1N=C(c2ccc(C(=O)NCCCCNC(=O)COc3cccc4c3C(=O)N(C3CCC(=O)NC3=O)C4=O)cc2)c2cc(OC)c(OC)cc2C[C@@H]1C (stereo partly drawn)
IC50 [1]: 136 nM
IC50 [2]: 24.9 nM
